This is an account of results in US20230099441A1, “HETEROCYCLIC COMPOUND, APPLICATION THEREOF, AND COMPOSITION CONTAINING SAME” (GenEros Biopharma Ltd., priority 2019, published 2023).

For experiment [1], the system named is STAT5 Y694 phosphorylation. As to the kind of experiment: HTRF experiment: STAT5 Y694 phosphorylation in Hela cells stimulated with human interferon beta. The format is cell-based. The settings on record: 2 hours pretreatment, 10 nM human interferon beta 30 minutes. As for the experimental part:
Example of Effect 3: HTRF Experiment
Human Interferon 3 (IFN-0) (GenScript, Cat #P01574), STAT5 Y694 phosphorylation detection kit (STAT5 phospho-Y694 kit) (Cisbio; Cat #64AT5PEG).
Hela cells (ATCC American Standard Culture Center, CCL-2) were cultured in a 96-well plate at a density of 3×10^4 cells/well with DMEM medium containing 5% fetal bovine serum and maintained at 37° C. in a humidified incubator with 5% carbon dioxide overnight. On the second day, the original DMEM medium in the 96-well plate was sucked dry, and an equal volume of medium containing different concentrations of compounds (the mother liquor of the compound prepared by dimethyl sulfoxide was diluted in the medium at the required concentration) was added for pretreatment for 2 hours, and then it was placed in an incubator at 37° C. Then human interferon beta with a final concentration of 10 nM was added to stimulate, and it was gently shaken to mix well and then placed in an incubator at 37° C. for 30 minutes.
The medium was removed, an appropriate volume of PBS was added to wash, and then it was sucked dry. Then 40 microliters of 1× Lysis Buffer was added to each well and it was stood for 30 minutes at room temperature (1 ml 1× lysate preparation: 740 μl ddH2O was added to 250 μl 4× lysate and 10 μl Blocking reagent and it was mixed thoroughly). After 30 minutes, the cells were repeatedly blown until the lysis solution was not viscous (avoiding blowing out bubbles) to achieve sufficient lysis.
After overnight incubation, the signals of 665 nm and 620 nm were detected in a multifunctional microplate reader. The calculation formula for the detection of STAT5 Y694 phosphorylation is: Ratio=[(signal 665 nm)/(signal 620 nm)]×10^4. Treatment with dimethyl sulfoxide alone was the baseline control (Ratiobase), and the human interferon β stimulation without addition of the compound was the STAT5 Y694 full phosphorylation activation control (Ratiostimulation), the inhibition rate of STAT5 Y694 phosphorylation of different samples was normalized: Inhibition rate=[1−(RatioExperiment−Ratiobase)/(Ratiostimulation−Ratiobase)]*100.
Background: TR-FRET usually uses a lanthanide donor and a delayed reading to cut background.

Experiment [2] concerns STAT5 Y694 phosphorylation. Briefly: Protein electrophoresis and blotting of STAT5 Y694 phosphorylation in Jurkat cells stimulated with human interferon beta. The class given is cell-based. The settings on record: observed pSTAT5 bands at 10 μM and 100 μM. The essentials: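 Serum-free Jurkat cells pretreated with compound 1 h, then stimulated with 20 ng/ml human interferon beta for 30 min at 37° C. pSTAT5 measured by western blot with chemiluminescence, normalized to GAPDH and expressed as percent of DMSO control.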

For `COc1cc(CC(=O)N2CCC(n3c(=O)[nH]c4cccc(C(F)(F)F)c43)CC2)ccc1Cl` [GEN1-278, 1-(1-(2-(4-chloro-3-methoxyphenyl)acetyl)piperidin-4-yl)-7-(trifluoromethyl)-1,3-dihydro-2H-benzo[d]imidazol-2-one], in experiment [1], the “Example of Effect 3: Inhibiting Ratio@10 μM (HTRF Experiment)” value turned out to be 73.74%.

With `O=C(Cc1ccc2c(c1)CCCN2)N1CCC(n2c(=O)[nH]c3cccc(C(F)(F)F)c32)CC1` [GEN1-276, 1-(1-(2-(1,2,3,4-tetrahydroquinolin-6-yl)acetyl)piperidin-4-yl)-7-(trifluoromethyl)-1,3-dihydro-2H-benzo[d]imidazol-2-one], the “Example of Effect 3: Inhibiting Ratio@10 μM (HTRF Experiment)” value in experiment [1] was found to be 55.48%.

With `CN(C)c1ccc(CC(=O)N2CCC(n3c(=O)[nH]c4cccc(C(F)(F)F)c43)CC2)cc1` [GEN1-118, 1-(1-(2-(4-(dimethylamino)phenyl)acetyl)piperidin-4-yl)-7-(trifluoromethyl)-1,3-dihydro-2H-benzo[d]imidazol-2-one], in experiment [2], the “Example of Effect 1: Inhibiting Ability (Protein Electrophoresis and Blotting)” value (“Example of Effect 1: Inhibiting Ability” below) is recorded as “+”. Moreover, the “Example of Effect 3: Inhibiting Ratio@10 μM (HTRF Experiment)” value in experiment [1] was determined as 27.57%.

Regarding `O=C(Cc1ccc2nccnc2c1)N1CCC(n2c(=O)[nH]c3cccc(C(F)(F)F)c32)CC1` [GEN1-140, 1-(1-(2-(quinoxalin-6-yl)acetyl)piperidin-4-yl)-7-(trifluoromethyl)-1,3-dihydro-2H-benzo[d]imidazol-2-one], the “Example of Effect 1: Inhibiting Ability” value in experiment [2] was “+”. Besides, the “Example of Effect 3: Inhibiting Ratio@10 μM (HTRF Experiment)” value in experiment [1] worked out at 53.79%.

Take `O=C(Nc1ccc(C(F)(F)F)cc1)N1CCC(n2c(=O)[nH]c3cccc(C(F)(F)F)c32)CC1` [GEN1-149, 4-(2-oxo-7-(trifluoromethyl)-2,3-dihydro-1H-benzo[d]imidazol-1-yl)-N-(4-(trifluoromethyl)phenyl)piperidin-1-carboxamide]: the “Example of Effect 1: Inhibiting Ability” value in experiment [2] is given as “+”. The “Example of Effect 3: Inhibiting Ratio@10 μM (HTRF Experiment)” value in experiment [1] came to 0.49%.

As to `O=C(Cc1ccc(C(F)(F)F)cc1)N1CCC(N2CC(=S)Nc3ccccc32)CC1` [GEN1-133], in experiment [1], the “Example of Effect 3: Inhibiting Ratio@10 μM (HTRF Experiment)” value stood at 31.27%.

As for `COc1ccc(CC(=O)N2CCC(n3c(=O)[nH]c4cccc(C(F)(F)F)c43)CC2)cc1OC` [GEN1-168, 1-(1-(2-(3,4-dimethoxyphenyl)acetyl)piperidin-4-yl)-7-(trifluoromethyl)-1,3-dihydro-2H-benzo[d]imidazol-2-one], in experiment [2], the “Example of Effect 1: Inhibiting Ability” value is “+”. Moreover, the “Example of Effect 3: Inhibiting Ratio@10 μM (HTRF Experiment)” value in experiment [1] is 47.57%.

Turning to `O=C(Cc1ccc(C(F)(F)F)cc1)N1CCC(n2c(=O)[nH]c3cccc(F)c32)CC1` [GEN1-289], the “Example of Effect 3: Inhibiting Ratio@10 μM (HTRF Experiment)” value in experiment [1] stood at 6.86%.

Take `O=C(Cc1ccc(C(F)(F)F)cc1)N1CCC(n2c(=O)[nH]c3cccc(Cl)c32)CC1` [GEN1-281]: the “Example of Effect 3: Inhibiting Ratio@10 μM (HTRF Experiment)” value in experiment [1] is on record as 50.87%.

`O=C(Cc1ccc(Br)cc1)N1CCC(n2c(=O)[nH]c3cccc(C(F)(F)F)c32)CC1` [GEN1-157, 1-(1-(2-(4-bromophenyl)acetyl)piperidin-4-yl)-7-(trifluoromethyl)-1H-benzo[d]imidazol-2(3H)-one]: the “Example of Effect 1: Inhibiting Ability” value in experiment [2] is given as “+”. Besides, the “Example of Effect 3: Inhibiting Ratio@10 μM (HTRF Experiment)” value in experiment [1] stood at 28.83%.

Take `O=C1CN(C2CCN(C(=O)Cc3ccc(C(F)(F)F)cc3)CC2)c2ccc(C(F)(F)F)cc2N1` [GEN1-135, 7-(trifluoromethyl)-4-(1-(2-(4-(trifluoromethyl)phenyl)acetyl)piperidin-4-yl)-3,4-dihydroquinoxaline-2(1H)-one]: in experiment [1], the “Example of Effect 3: Inhibiting Ratio@10 μM (HTRF Experiment)” value is 22.91%.

On to `O=C(Cc1ccc(C(F)(F)F)cc1)N1CCC(n2c(=O)[nH]c3ccc(-c4ccccc4)c(C(F)(F)F)c32)CC1` [GEN1-277, 6-phenyl-7-(trifluoromethyl)-1-(1-(2-(4-(trifluoromethyl)phenyl)acetyl)piperidin-4-yl)-1H-benzo[d]imidazol-2(3H)-one], for which, in experiment [1], the “Example of Effect 3: Inhibiting Ratio@10 μM (HTRF Experiment)” value was found to be 6.52%.

In the case of `Cc1cccc2[nH]c(=O)n(C3CCN(C(=O)Cc4ccc5ncccc5c4)CC3)c12` [GEN1-292, 7-methyl-1-(1-(2-(quinolin-6-yl)acetyl)piperidin-4-yl)-1,3-dihydro-2H-benzo[d]imidazol-2-one], the “Example of Effect 3: Inhibiting Ratio@10 μM (HTRF Experiment)” value in experiment [1] came out at 59.63%.

As for `O=C(Cc1ccc(C(F)(F)F)cc1)N1CCC(N2C(=O)NCc3cccc(C(F)(F)F)c32)CC1` [GEN1-265, 8-(trifluoromethyl)-1-(1-(2-(4-(trifluoromethyl)phenyl)acetyl)piperidin-4-yl)-3,4-dihydroquinazolin-2(1H)-one], the “Example of Effect 3: Inhibiting Ratio@10 μM (HTRF Experiment)” value in experiment [1] was 16.47%.

As for `O=C(C[C@H]1CC[C@H](C(F)(F)F)CC1)N1CCC(n2c(=O)[nH]c3cccc(C(F)(F)F)c32)CC1` [GEN1-268, 7-(trifluoromethyl)-1-(1-(2-((1R,4R)-4-(trifluoromethyl)cyclohexyl)acetyl)piperidin-4-yl)-1H-benzo[d]imidazol-2(3H)-one], the “Example of Effect 3: Inhibiting Ratio@10 μM (HTRF Experiment)” value in experiment [1] amounted to 58.21%.

Consider `O=C(Cc1ccc(C(F)(F)F)cc1)N1CCC(c2c(Br)[nH]c3ccccc23)CC1` [GEN1-139, 1-(4-(2-bromo-1H-indol-3-yl)piperidin-1-yl)-2-(4-(trifluoromethyl)phenyl)ethenone], for which the “Example of Effect 3: Inhibiting Ratio@10 μM (HTRF Experiment)” value in experiment [1] turned out to be 18.43%.

As to `COc1ccccc1CC(=O)N1CCC(n2c(=O)[nH]c3ccccc32)CC1` [GEN1-271], the “Example of Effect 3: Inhibiting Ratio@10 μM (HTRF Experiment)” value in experiment [1] stood at 9.33%.

For the compound `CCOc1cccc(CC(=O)N2CCC(n3c(=O)[nH]c4ccccc43)CC2)c1` [GEN1-287], the “Example of Effect 3: Inhibiting Ratio@10 μM (HTRF Experiment)” value in experiment [1] is on record as 8.72%.

With `O=C(Cc1ccc(Cl)c(OC(F)(F)F)c1)N1CCC(n2c(=O)[nH]c3cccc(C(F)(F)F)c32)CC1` [GEN1-280, 1-(1-(2-(4-chloro-3-(trifluoromethoxy)phenyl)acetyl)piperidin-4-yl)-7-(trifluoromethyl)-1,3-dihydro-2H-benzo[d]imidazol-2-one], the “Example of Effect 3: Inhibiting Ratio@10 μM (HTRF Experiment)” value in experiment [1] came to 20.53%.

With `O=C(Cc1ccc(C(F)(F)F)cc1)NCCn1c(=O)[nH]c2ccccc21` [GEN1-062, N-(2-(2-oxo-2,3-dihydro-1H-benzo[d]imidazol-1-yl)ethyl)-2-(4-(trifluoromethyl)phenyl)acetamide], in experiment [1], the “Example of Effect 3: Inhibiting Ratio@10 μM (HTRF Experiment)” value amounted to 5.12%.

As to `COc1cccc(CC(=O)N2CCC(n3c(=O)[nH]c4ccccc43)CC2)c1` [GEN1-270], in experiment [1], the “Example of Effect 3: Inhibiting Ratio@10 μM (HTRF Experiment)” value is given as 21.10%.

Regarding `O=C(Cc1ccc2ncccc2c1)N1CCC(n2c(=O)[nH]c3cccc(Cl)c32)CC1` [GEN1-291], the “Example of Effect 3: Inhibiting Ratio@10 μM (HTRF Experiment)” value in experiment [1] was found to be 70.98%.

`O=C1Nc2ccccc2C2(CCN(C(=O)Cc3ccc(C(F)(F)F)cc3)CC2)N1` [GEN1-179, 1-(2-(4-(trifluoromethyl)phenyl)acetyl)-1′H-spiro[piperidin-4,4′-quinazoline]-2′(3′H)-one]: in experiment [1], the “Example of Effect 3: Inhibiting Ratio@10 μM (HTRF Experiment)” value came to 10.11%.

Consider `O=C(Cc1ccc(C(F)(F)F)cc1)N1CCC(n2c(=O)[nH]c3cccc(Br)c32)CC1` [GEN1-290], for which, in experiment [1], the “Example of Effect 3: Inhibiting Ratio@10 μM (HTRF Experiment)” value was 57.51%.

`O=C1Nc2ccccc2C2(CCN(C(=O)Cc3ccc(C(F)(F)F)cc3)CC2)O1` [GEN1-178, 1′-(2-(4-(trifluoromethyl)phenyl)acetyl)spiro[benzo[d][1,3]oxazine-4,4′-piperidine]-2(1H)-one]: the “Example of Effect 3: Inhibiting Ratio@10 μM (HTRF Experiment)” value in experiment [1] stood at 8.67%.

As for `O=C(Cc1ccc2[nH]ccc2c1)N1CCC(n2c(=O)[nH]c3ccccc32)CC1` [GEN1-077, 3-[1-[2-(1H-indol-5-yl)acetyl]-4-piperidinyl]-1H-benzimidazol-2-one], in experiment [1], the “Example of Effect 3: Inhibiting Ratio@10 μM (HTRF Experiment)” value came to 34.25%.

Take `O=C(Cc1ccc(C(F)(F)F)cc1)N1CCC(Nc2ccccc2O)CC1` [GEN1-056, 1-(4-((2-hydroxyphenyl)amino)piperidin-1-yl)-2-(4-(trifluoromethyl)phenyl)ethenone]: the “Example of Effect 3: Inhibiting Ratio@10 μM (HTRF Experiment)” value in experiment [1] was found to be 13.93%.

Regarding `Cc1cccc2[nH]c(=O)n(C3CCN(C(=O)Cc4ccc(C(F)(F)F)cc4)CC3)c12` [GEN1-282], the “Example of Effect 3: Inhibiting Ratio@10 μM (HTRF Experiment)” value in experiment [1] is on record as 49.93%.

On to `CS(=O)(=O)Nc1ccc(CC(=O)N2CCC(n3c(=O)[nH]c4ccccc43)CC2)cc1` [GEN1-110], for which, in experiment [1], the “Example of Effect 3: Inhibiting Ratio@10 μM (HTRF Experiment)” value is given as −10.49%.

With `O=C(Cc1ccc2ncccc2c1)N1CCC(n2c(=O)[nH]c3cc(Cl)ccc32)CC1` [GEN1-294], the “Example of Effect 3: Inhibiting Ratio@10 μM (HTRF Experiment)” value in experiment [1] is listed as 1.85%.
